In publication PMC12867150, “A fungi-derived cyclic peptide enhances Th9-mediated antitumor immunity by targeting ZAP70 and SREBP1” (The Journal of Clinical Investigation, 2025):
Where “and” joins values, the source holds several entries; their conditions need not be identical. Equal entries are not always repeated.

Test system: Th1 cells
Assay: Th1 polarization, IFN-γ by flow cytometry (Figure 1F)
Format: cell-based, mouse
Description: Naive CD4^+ T cells were isolated from the spleens of C57BL/6J or CD45.1^+ OT-II mice using the MojoSort Mouse CD4 Naive T Cell Isolation Kit (BioLegend, catalog 480040), following the manufacturer’s protocol. Purified cells were cultured in RPMI-1640 medium supplemented with 10% FBS, 1% penicillin-streptomycin, and 0.1% β-mercaptoethanol (Gibco, catalog 21985023).
T cell polarization was initiated under plate-bound anti-CD3 (2 μg/mL, clone 17A2, BioXCell, catalog BE0002) and soluble anti-CD28 (1 μg/mL, clone 37.51, BioXCell, catalog BE0015-1) stimulation, with the addition of cytokines and neutralizing antibodies specific to each subset. For Th9 cells, these included IL-4 (10 ng/mL, Peprotech, catalog 400-04), TGF-β (1 ng/mL, EPOTO Biotech, catalog HF-2021), anti–IL-12 (5 μg/mL, clone C17.8, BioXCell, catalog BE0051), and anti–IFN-γ (10 μg/mL, clone XMG1.2, BioXCell, catalog BE0055); for Th1 cells, these included IL-12 (10 ng/mL, GenScript, catalog Z03211-50) and anti–IL-4 (5 μg/mL, clone 11B11, BioXCell, catalog BE0045); for Th2 cells, these included IL-4 (50 ng/mL), anti–IFN-γ (20 μg /mL), anti–IL-12 (5 μg/mL), Th17 cells: IL-6 (20 ng/mL, EPOTO Biotech, catalog MF-1006), TGF-β (1 ng/mL), IL-1β (10 ng/mL, Peprotech, catalog AF-211-11B), anti–IFN-γ (10 μg/mL), anti–IL-12 (5 μg/mL), and anti–IL-4 (5 μg/mL); and for Tregs, these included TGF-β (3 ng/mL). […]

## anteiso-C15 Leu7 surfactin [EpA]
EpA 10 μM, individual replicates, n = 4
  IFN-γ expression under Th1 polarization: 80 and 84.2 and 74.8 and 80.3
Result in words
  effect on Th1 polarization: did not affect
